Experiment [1] has as its target Tyrosine-protein kinase BTK (Homo sapiens) (UniProt Q06187). The following applies: Compound concentration 1000.0 nM.
Experiment [2] has as its system Proto-oncogene tyrosine-protein kinase receptor Ret (Homo sapiens), P07949 [V804M]. The following applies: Compound concentration 1000.0 nM.
The target in experiment [3] is Casein kinase I isoform gamma-1 (Homo sapiens) (UniProt Q9HCP0). Conditions: Compound concentration 1000.0 nM.
The target of experiment [4] is T1, Serine/threonine-protein kinase Nek9 (Homo sapiens) (UniProt Q8TD19).
T1 sequence (whole entry): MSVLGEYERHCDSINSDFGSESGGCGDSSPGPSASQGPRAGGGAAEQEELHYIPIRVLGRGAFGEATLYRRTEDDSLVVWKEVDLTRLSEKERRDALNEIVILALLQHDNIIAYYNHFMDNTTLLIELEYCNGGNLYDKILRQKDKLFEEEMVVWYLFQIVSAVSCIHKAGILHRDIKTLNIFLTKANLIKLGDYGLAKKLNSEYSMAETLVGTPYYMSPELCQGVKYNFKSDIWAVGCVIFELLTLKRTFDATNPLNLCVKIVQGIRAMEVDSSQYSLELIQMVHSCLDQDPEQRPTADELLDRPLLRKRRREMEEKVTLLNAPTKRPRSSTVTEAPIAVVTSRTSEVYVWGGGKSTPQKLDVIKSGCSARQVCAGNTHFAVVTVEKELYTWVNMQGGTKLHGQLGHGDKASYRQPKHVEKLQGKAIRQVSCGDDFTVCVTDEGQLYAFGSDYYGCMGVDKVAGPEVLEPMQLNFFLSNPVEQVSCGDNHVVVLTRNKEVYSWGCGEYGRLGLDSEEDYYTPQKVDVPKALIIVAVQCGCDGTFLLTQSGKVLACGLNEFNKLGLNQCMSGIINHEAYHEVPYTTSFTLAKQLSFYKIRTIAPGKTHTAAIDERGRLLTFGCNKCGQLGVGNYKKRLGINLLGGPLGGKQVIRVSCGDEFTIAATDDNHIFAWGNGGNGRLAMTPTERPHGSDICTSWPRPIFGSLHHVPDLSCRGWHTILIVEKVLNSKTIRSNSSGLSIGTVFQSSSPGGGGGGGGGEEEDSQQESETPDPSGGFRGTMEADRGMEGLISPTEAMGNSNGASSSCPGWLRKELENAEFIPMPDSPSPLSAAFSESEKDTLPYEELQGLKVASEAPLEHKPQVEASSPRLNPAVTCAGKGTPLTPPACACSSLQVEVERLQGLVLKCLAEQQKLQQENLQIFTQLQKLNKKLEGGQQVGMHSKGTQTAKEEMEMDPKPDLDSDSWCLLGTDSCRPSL
Conditions: Compound concentration 1000.0 nM.

Experiment [5] deals with Serine/threonine-protein kinase RIO1 (Homo sapiens) (UniProt Q9BRS2). The following applies: Compound concentration 1000.0 nM.
The next experiment is filed under the species Rattus norvegicus. Conditions: Compound concentration 10.0 uM.
For experiment [6], the target named is Serine/threonine-protein kinase SIK3 (Homo sapiens) (UniProt Q9Y2K2). The following applies: Compound concentration 1000.0 nM.
For experiment [7], the target named is Bone morphogenetic protein receptor type-2 (Homo sapiens) (UniProt Q13873). Conditions: Compound concentration 1000.0 nM.
Bone morphogenetic protein receptor type-2 (Homo sapiens), sequence (Q13873 whole entry): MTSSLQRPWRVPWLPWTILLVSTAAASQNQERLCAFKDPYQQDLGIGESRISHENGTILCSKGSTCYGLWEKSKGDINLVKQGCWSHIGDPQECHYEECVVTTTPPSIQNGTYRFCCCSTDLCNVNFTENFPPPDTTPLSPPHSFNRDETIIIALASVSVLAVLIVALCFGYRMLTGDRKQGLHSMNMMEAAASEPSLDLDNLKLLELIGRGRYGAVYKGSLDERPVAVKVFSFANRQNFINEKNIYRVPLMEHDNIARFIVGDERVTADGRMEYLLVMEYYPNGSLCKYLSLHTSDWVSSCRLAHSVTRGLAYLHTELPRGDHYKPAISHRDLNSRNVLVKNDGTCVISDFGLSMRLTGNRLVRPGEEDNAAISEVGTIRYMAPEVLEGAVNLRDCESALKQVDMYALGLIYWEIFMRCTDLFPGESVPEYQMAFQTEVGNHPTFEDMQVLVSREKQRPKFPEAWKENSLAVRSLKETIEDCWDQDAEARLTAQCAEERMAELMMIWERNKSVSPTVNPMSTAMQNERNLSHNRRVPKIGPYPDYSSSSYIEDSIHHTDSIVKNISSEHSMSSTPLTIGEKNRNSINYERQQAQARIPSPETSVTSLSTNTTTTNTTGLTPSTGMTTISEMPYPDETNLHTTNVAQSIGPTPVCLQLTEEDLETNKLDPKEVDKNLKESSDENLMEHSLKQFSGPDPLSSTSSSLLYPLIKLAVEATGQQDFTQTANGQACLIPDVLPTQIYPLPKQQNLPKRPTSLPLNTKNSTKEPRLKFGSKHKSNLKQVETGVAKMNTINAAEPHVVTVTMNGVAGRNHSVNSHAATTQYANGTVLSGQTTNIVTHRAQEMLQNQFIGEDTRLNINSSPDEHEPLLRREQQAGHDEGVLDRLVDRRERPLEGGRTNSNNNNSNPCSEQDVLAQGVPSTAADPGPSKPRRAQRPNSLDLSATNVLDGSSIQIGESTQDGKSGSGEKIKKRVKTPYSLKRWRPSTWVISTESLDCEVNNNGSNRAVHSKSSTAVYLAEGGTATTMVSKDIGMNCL
For experiment [8], the target named is Serine/threonine-protein kinase 36 (Homo sapiens) (UniProt Q9NRP7). The following applies: Compound concentration 1000.0 nM.
Experiment [9] has as its target Serine/threonine-protein kinase PLK2 (Homo sapiens) (UniProt Q9NYY3). The following applies: Compound concentration 1000.0 nM.
Experiment [10] addresses Mitogen-activated protein kinase kinase kinase 11 (Homo sapiens) (UniProt Q16584). The following applies: Compound concentration 1000.0 nM.
For experiment [11], the target named is 5'-AMP-activated protein kinase catalytic subunit alpha-2 (Homo sapiens) (UniProt P54646). Conditions: Compound concentration 1000.0 nM.
Experiment [12] has as its target Non-receptor tyrosine-protein kinase TNK1 (Homo sapiens) (UniProt Q13470). Conditions: Compound concentration 1000.0 nM.
The target in experiment [13] is T2, Inhibitor of nuclear factor kappa-B kinase subunit alpha (Homo sapiens) (UniProt O15111).
T2 sequence (whole entry): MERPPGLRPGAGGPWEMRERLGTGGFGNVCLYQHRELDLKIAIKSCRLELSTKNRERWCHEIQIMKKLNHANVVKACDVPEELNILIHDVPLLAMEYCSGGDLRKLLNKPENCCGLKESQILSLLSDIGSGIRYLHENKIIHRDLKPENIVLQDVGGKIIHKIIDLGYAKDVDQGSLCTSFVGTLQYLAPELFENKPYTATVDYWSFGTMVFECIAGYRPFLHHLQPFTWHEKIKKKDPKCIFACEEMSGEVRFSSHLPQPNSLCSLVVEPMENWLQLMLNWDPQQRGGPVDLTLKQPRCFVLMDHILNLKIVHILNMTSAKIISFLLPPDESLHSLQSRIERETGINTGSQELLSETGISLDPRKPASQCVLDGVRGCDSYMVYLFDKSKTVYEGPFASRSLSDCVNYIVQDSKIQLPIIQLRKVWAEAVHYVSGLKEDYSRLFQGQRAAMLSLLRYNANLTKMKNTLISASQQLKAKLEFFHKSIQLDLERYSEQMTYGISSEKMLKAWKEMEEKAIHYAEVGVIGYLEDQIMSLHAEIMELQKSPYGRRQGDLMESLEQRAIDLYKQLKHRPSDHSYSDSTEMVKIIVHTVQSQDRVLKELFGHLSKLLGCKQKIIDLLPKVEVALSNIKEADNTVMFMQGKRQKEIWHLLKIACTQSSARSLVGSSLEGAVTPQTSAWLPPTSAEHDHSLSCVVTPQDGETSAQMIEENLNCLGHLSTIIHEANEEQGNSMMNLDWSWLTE
Conditions: Compound concentration 1000.0 nM.

Experiment [14] addresses Cyclin-G-associated kinase (Homo sapiens) (UniProt O14976). Conditions: Compound concentration 1000.0 nM.
The target of experiment [15] is Tyrosine-protein kinase ABL2 (Homo sapiens) (UniProt P42684). The following applies: Compound concentration 1000.0 nM.
In experiment [16] the target is 3-phosphoinositide-dependent protein kinase 1 (Homo sapiens) (UniProt O15530). The following applies: Compound concentration 1000.0 nM.
The target of experiment [17] is Phosphatidylinositol 4,5-bisphosphate 3-kinase catalytic subunit alpha isoform (Homo sapiens) (UniProt P42336). Conditions: Compound concentration 1000.0 nM.
The target in experiment [18] is Atypical kinase COQ8A, mitochondrial (Homo sapiens) (UniProt Q8NI60). The following applies: Compound concentration 1000.0 nM.
Atypical kinase COQ8A, mitochondrial (Homo sapiens), sequence (Q8NI60 163-647 limits assumed): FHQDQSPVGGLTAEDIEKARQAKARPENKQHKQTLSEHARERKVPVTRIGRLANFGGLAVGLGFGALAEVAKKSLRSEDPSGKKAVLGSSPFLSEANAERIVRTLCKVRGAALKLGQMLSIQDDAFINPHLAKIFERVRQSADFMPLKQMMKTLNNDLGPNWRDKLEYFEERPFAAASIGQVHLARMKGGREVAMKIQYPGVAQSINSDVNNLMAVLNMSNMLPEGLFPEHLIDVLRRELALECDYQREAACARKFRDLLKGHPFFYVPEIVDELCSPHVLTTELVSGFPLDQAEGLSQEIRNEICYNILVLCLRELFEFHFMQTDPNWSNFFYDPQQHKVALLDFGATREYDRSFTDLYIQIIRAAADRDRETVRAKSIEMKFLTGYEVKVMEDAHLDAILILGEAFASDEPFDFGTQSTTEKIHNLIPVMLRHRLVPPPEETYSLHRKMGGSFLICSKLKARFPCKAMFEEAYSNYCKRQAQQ
In experiment [19] the target is Casein kinase II subunit alpha' (Homo sapiens) (UniProt P19784). The following applies: Compound concentration 1000.0 nM.
For experiment [20], the target named is Sodium-dependent noradrenaline transporter (Homo sapiens) (UniProt P23975). The following applies: Compound concentration 10.0 uM.
Sodium-dependent noradrenaline transporter (Homo sapiens), sequence (P23975 whole entry): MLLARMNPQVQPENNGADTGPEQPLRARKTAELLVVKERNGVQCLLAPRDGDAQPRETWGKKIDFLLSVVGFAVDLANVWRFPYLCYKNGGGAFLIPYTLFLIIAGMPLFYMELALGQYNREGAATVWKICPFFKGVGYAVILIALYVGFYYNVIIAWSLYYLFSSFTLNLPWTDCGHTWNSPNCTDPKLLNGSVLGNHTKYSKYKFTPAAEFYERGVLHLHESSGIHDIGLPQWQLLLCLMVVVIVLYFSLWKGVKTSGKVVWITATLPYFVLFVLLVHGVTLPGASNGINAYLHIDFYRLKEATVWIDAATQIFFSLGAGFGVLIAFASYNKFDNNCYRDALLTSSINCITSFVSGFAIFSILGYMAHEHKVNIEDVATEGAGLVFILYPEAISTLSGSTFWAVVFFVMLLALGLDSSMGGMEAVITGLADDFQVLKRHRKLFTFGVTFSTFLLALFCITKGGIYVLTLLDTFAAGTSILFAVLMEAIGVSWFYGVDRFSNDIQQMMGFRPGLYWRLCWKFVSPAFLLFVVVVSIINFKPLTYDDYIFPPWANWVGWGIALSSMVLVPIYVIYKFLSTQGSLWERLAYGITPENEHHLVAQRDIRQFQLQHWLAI

Molecules are shown by their SMILES.

One may read the inhibition as the percentage by which the read-out fell short of the control.

Cyclin-G-associated kinase (Homo sapiens), sequence (O14976 whole entry): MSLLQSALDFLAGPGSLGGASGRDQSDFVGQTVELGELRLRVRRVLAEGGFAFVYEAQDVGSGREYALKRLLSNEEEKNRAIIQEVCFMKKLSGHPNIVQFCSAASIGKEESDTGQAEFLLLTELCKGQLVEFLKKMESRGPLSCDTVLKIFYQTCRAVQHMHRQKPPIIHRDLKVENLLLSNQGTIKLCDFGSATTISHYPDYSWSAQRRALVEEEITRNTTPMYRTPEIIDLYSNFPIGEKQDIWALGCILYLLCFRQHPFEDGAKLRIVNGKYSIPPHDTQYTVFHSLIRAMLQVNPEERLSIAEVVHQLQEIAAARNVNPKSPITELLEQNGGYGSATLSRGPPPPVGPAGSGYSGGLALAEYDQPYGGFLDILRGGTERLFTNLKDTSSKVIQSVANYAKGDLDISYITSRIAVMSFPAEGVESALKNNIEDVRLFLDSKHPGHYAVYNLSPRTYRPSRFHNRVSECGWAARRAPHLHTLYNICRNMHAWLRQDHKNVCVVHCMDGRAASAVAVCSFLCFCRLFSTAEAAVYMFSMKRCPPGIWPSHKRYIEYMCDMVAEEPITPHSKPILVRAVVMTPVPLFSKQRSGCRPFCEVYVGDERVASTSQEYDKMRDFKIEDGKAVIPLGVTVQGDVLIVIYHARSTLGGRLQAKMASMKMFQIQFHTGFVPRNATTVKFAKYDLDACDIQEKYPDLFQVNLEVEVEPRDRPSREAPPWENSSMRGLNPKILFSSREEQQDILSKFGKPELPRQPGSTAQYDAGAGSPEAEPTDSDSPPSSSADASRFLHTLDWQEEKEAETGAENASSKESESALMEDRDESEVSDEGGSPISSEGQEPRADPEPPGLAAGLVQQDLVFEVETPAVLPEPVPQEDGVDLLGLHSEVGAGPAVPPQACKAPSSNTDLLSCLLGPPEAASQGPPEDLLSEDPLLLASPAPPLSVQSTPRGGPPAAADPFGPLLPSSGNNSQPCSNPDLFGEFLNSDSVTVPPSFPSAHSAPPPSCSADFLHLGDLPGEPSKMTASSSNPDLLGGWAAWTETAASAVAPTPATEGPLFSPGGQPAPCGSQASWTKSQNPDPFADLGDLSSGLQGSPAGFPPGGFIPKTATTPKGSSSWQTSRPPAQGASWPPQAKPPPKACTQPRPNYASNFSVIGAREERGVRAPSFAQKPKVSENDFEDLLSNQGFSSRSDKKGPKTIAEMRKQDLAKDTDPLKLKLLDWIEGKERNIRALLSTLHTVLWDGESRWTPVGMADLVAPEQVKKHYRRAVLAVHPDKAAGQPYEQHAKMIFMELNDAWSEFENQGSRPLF
Serine/threonine-protein kinase PLK2 (Homo sapiens), sequence (Q9NYY3 whole entry, looked up): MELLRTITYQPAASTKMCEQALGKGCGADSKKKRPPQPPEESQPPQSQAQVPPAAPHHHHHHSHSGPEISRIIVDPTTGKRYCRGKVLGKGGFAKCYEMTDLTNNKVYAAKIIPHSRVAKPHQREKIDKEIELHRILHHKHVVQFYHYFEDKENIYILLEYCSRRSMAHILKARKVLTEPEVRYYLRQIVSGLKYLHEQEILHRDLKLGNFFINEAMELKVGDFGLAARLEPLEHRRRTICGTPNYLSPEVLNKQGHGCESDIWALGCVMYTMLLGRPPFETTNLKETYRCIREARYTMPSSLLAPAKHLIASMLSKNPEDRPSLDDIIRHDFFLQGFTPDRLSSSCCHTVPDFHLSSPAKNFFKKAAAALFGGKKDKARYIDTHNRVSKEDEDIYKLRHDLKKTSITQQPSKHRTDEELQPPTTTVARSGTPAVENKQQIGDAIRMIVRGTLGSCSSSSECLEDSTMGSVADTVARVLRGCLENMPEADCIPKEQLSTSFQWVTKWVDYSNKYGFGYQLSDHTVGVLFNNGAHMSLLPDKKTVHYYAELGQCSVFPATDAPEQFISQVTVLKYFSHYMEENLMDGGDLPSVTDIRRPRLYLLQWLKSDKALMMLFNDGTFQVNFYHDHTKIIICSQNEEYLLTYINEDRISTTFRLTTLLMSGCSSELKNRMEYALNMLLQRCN
Non-receptor tyrosine-protein kinase TNK1 (Homo sapiens), sequence (Q13470 whole entry): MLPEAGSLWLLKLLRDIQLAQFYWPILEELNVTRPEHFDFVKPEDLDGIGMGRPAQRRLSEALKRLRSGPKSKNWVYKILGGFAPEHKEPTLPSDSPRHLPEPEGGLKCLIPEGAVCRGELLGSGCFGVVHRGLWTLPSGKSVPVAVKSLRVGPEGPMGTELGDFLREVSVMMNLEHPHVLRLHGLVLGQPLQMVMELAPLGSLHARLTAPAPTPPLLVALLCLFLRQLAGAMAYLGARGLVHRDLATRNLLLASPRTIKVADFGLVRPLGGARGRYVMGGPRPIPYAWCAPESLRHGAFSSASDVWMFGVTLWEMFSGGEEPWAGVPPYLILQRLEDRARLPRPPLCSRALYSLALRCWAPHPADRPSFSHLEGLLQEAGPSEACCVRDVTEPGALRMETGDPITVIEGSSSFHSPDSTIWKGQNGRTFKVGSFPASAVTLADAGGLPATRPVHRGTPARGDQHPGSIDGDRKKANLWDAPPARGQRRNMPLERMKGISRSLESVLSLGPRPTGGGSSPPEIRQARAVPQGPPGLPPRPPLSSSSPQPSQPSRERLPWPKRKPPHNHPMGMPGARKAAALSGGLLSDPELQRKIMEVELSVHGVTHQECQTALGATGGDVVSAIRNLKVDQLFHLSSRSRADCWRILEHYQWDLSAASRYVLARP

With `CN(C)C(=O)Cn1cc(-c2nc(C3(c4ccc(-c5cnc(N)nc5)cc4)CC3)no2)cn1` [BI 0153], the residual activity in experiment [1] was 82%; in [2], 100%; in [3] it was 90%; in experiment [4] it was 100%; in experiment [5], 100%; in experiment [6], 100%. In addition, the residual activity in experiment [7] was 93%; in experiment [8], 75%; in [9], 93%; in [10], 87%; in experiment [11] it was 86%; in experiment [12], 96%. Moreover, the residual activity in experiment [13] is 100%; in experiment [14] it was 100%; in experiment [15], 84%; in experiment [16], 82%; in [17], 76%; in experiment [18], 99%. Besides, the residual activity in experiment [19] was 100%. In addition, the inhibition was 7.97% in the experiment filed under Rattus norvegicus and 8.33% in experiment [20].
With `CN(C)C(=O)Cn1cc(-c2nc([C@@](C)(c3ccc(-c4cnc(N)nc4)cc3)C3CC3)no2)cn1` [BI 665915], the residual activity in [1] is 73%; in experiment [2], 97%; in [3] it was 100%; in [4], 95%; in [5], 100%; in experiment [6], 70%. Also, the residual activity in experiment [7] is 94%; in experiment [8], 79%; in experiment [9], 56%; in [10], 77%; in [11], 100%; in experiment [12] it was 100%. Moreover, the residual activity in [13] was 0%; in [14] it was 100%; in experiment [15], 100%; in experiment [16], 99%; in experiment [17], 96%; in [18], 100%. Also, the residual activity in experiment [19] was 90%. Also, the inhibition was 1.51% in the experiment listed under Rattus norvegicus and 18.9% in experiment [20].

These data come from ChEMBL document CHEMBL4507276 (2021).
